Results on 1 molecule are retold here after paper PMC11749085, “Paeoniflorin relieves arterial stiffness induced by a high-fat/high-sugar diet by disrupting the YAP-PPM1B interaction” (Life Medicine, 2023).

Molecules are shown by their SMILES.

One may read the IC50 as the concentration that gives 50% inhibition.

One assay deals with T1, YAP-CC domain (Homo sapiens, UniProt P46937).
T1 construct: gene YAP1
As to the kind of experiment: biolayer interferometry. The format is binding. The note with it: read-out: affinity. From the text: biolayer interferometry on YAP-CC domain | a binding between paeoniflorin and the YAP-CC domain with an affinity of […]
In general terms: Biolayer interferometry detects binding as a change in optical thickness at a sensor tip.

The target in assay [1] is T2, LgBiT-YAP-CC / SmBiT-PPM1B (Homo sapiens, UniProt P46937).
T2 construct: gene YAP1; with Protein phosphatase 1B
T2 sequence (P46937 298-328): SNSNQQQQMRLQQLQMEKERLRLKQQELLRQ
T2 sequence (O75688 2-479 partner): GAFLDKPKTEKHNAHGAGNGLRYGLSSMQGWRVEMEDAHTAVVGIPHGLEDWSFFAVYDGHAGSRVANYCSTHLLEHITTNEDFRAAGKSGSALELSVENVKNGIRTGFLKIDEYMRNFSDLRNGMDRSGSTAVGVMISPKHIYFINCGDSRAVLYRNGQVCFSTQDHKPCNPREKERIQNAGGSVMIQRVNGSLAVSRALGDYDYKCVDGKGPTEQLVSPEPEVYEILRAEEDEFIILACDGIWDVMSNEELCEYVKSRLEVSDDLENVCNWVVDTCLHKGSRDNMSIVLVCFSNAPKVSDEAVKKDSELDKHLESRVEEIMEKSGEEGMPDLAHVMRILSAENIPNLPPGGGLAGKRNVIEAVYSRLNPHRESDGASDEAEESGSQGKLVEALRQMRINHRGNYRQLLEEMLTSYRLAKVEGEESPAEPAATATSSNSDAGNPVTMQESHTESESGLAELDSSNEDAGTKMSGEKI
As to the kind of experiment: NanoBiT split-luciferase protein-protein interaction assay in HeLa cells. Format: cell-based.

T1 sequence (P46937 298-328): as the sequence (P46937 298-328) above

As to `C[C@@]12C[C@@]3(O)O[C@@H](O1)[C@]1(COC(=O)c4ccccc4)[C@H]3C[C@@]12O[C@@H]1O[C@H](CO)[C@@H](O)[C@H](O)[C@H]1O` [paeoniflorin], the Kd at YAP-CC domain came to 40.5 µM. This molecule registered a 50% inhibitory concentration (IC50) in assay [1] of 4.8 µM.
